Results published in US9132118B2, “Taxane analogs for the treatment of brain cancer” (Tapestry Pharmaceuticals, Inc., priority 2007, dated 2015).
Entries after “also recorded” stand apart in the source; their conditions may differ. Read-outs that look alike come from different tables or passages of the source.

Columns and labels:
[1] = Efficacy of oral or iv S-(1) in mouse xenografts; format: in vivo, nude mice; settings: mouse, in vivo, po; nude mice; from efficacy studies and MTD studies; read-out: apparent oral bioavailability
Experimental: (§1) Summary of Experimental Protocol: Human neuroblastoma tumor cells were implanted via subcutaneous injection of 1-10×10^6 cells in nude mice. Tumors were allowed to grow to 200 mg+/−50 mg in size. Drug dosing was initiated, and tumor volume and body weight were recorded twice weekly.
(§2) The mean value for % body weight change and % tumor volume increase for each experimental group was plotted including error bars for the standard error of the mean.
(§3) Other metrics for assessing antitumor effects include: % T/C values as calculated by the following formula:
(§4) [formula] Log Kill=(T−C)/3.32×(Td)

human tumor xenografts = assay: Efficacy of oral or iv S-(1) in mouse xenografts; format: in vivo, nude mice; settings: human tumor xenografts in nude mice
Experimental: as §1, §2, §3, §4

[2] = tested on: bovine microtubule protein (tubulin plus microtubule associated proteins); assay: In vitro ED50 MT polymerization study (DAPI fluorescence tubulin assay); format: biochemical
Experimental: In this tubulin binding assay, microtubule protein (MTP) is used as a substrate. The assay contains bovine tubulin plus microtubule associated proteins (MAP). MTP is polymerized into microtubules in the presence of DAPI (4′,6′-diamidino-2-phenylindole), a fluorescent compound. DAPI binds to tubulin; when microtubules are formed and there is an enhancement of fluorescence. The microtubule formation is measured as a function of time, using a fluorescence plate reader. […] The method used is based on the procedure published by Donna M. Barron, et al, “Fluorescence-based high-throughput assay for antimicrotuble drugs” Analytical Biochemistry, 315: 49-56, 2003, which is incorporated by reference in its entirety. The excitation wavelength, in that assay, was set at 370 nm and the emission wavelength was set at 450 nm for the DAPI experiments.
A Bio-Tek FL 600 microplate Fluorescence Reader was used to measure the relative level of fluorescence in the DAPI assay.
Assays were conducted in 96-well plates. […] The final DMSO concentration was 4%. The plates were incubated at 37° C. for 30 minutes and read in a fluorescence plate reader using an excitation wavelength of 360 nm and an emission wavelength of 460 nm. Fluorescence values were corrected for the sample without compound. […] Experiments were done twice in triplicate. Results were subsequently combined and fit to a non-linear regression program.

[3] = S-(1) pharmacokinetics in mouse, plasma and brain levels after single IV bolus; format: in vivo, mice; settings: single IV 20 mg/kg; for AUC (0-t) / AUC (0-∞) / Cmax / MRT (expo): male CD-1 mice
Experimental: S-(I) was formulated in 7% Ethanol: 3% Cremophor EL: 90% D5W (5% Dextrose in water). The formulated drug was administered as a single IV bolus via tail vein injection. The details are set out below:
Sample Collection timing: Terminal blood (plasma) and brain specimens were collected at 9 times post-dose, with 4 mice per sample time. Sample collection times:
Blood collection: A terminal blood sample was collected from each mouse via cardiac puncture. The whole blood was collected on wet ice, spun down immediately (at 4° C.), and plasma stored frozen at −20° C. until analysis. The anticoagulant used was K2EDTA. Brain Sample Collection: Whole brains were removed by dissection. Brains were collected on wet ice, weighed, and stored at −20° C.

central nervous system = assay: Central nervous system (CNS) safety study in rats; format: in vivo, rat
Experimental: This study was conducted at ClinTrials BioResearch (CTBR, Montreal, Quebec, Canada) as a GLP study.
Results: All animals were observed twice daily for signs of ill health or reaction to treatment, except on day of arrival and necropsy. A Functional Observation Battery
(FOB) assessment, along with grip strength, hind limb splay and body temperature measurements were performed for all animals once pre-dose and at approximately 15 minutes, 1 hour, 4 hours, 8 hours and 24 hours post-dose. After the last observation, all animals were euthanized without further examination.

[4] = S-(1) rat oral bioavailability, formulations evaluated in vivo
Experimental: IV formulation (Cremophor El P/alcohol) and a suspension of the compound of Formula S-(1) in aqueous medium: Several studies were performed to investigate specific parameters.
Using the 50:50 CremophoπEthanol formulation as a case study (AUC last: 2540; norm AUCinf: 477), F was calculated from the ratio of the normalized PO and IV AUCs: F(%)=norm. AUC PO/norm. AUC IV.

[5] = Phase 1 Study S-(1)-02, i.v. every 21 days, safety and pharmacokinetics; format: in vivo, patients; settings: for AUC0-24 / Cl / Vss / t1/2: Study S-(1)-02 (15:85 Cremophor EL-P/ethanol), i.v., first dose; for half-life: human, plasma, intravenous
Experimental: treatment cycles are repeated every 28 days in patients who remain eligible for continued treatment. Study S-(1)-O1 is currently being conducted in the United States. […] Study S-(I)-02 is currently being conducted in the United States and in Israel.
Plasma pharmacokinetics of S-(1) were assessed following the first dose of S-(1) in both studies. Plasma samples were analyzed for S-(1) using a validated LC/MS-MS method.
Treatment cohorts were expanded to 6 pts in the face of dose-limiting toxicity (DLT); pts could remain on study until the development of progressive disease or an intolerable adverse event. DLT was defined as Gr 4 heme toxicity lasting 7 days; febrile neutropenia, Gr 3 thrombocytopenia with bleeding, Gr 3 elevation of transaminases lasting 7 days or any other Gr ¾ toxicity other than nausea or vomiting.

With `C=C[C@H]1O[C@H]2CC3OC[C@@]3(OC(C)=O)[C@H]3[C@H](OC(=O)c4ccccc4)[C@]4(C(C)(C)O)C[C@H](OC(=O)[C@H](O)[C@H](CC(C)C)NC(=O)OC(C)(C)C)C(C)=C4[C@H](OC(C)=O)[C@H](O1)[C@]23C` (stereo partly drawn) [S-(1)] the bioavailability [1] was 70 to 80%, the “efficacy / antitumor activity in mouse xenografts (in words)” value (human tumor xenografts) was “demonstrated antitumor activity against multiple human tumor xenografts in nude mice, including xenografts that expressed mdr-1 and that were resistant to other taxanes; also recorded: suppressed the growth of multiple human tumor xenografts in nude mice, including xenografts that expressed mdr-1 and that were resistant to other taxanes; also recorded: shows efficacy” and the “ED50 Compound/ED50 Paclitaxel” value ([2]; ratio of tubulin polymerization ED50 values) was 0.53. For the same compound, the EC50 ([2]; tubulin polymerization, 37° C. 30 minutes, percent of maximum assembly at 25 μM paclitaxel) was 1580 ± 460 nM, the “AUC (0-t)” value ([3]; Brain) was 64984.9 ng·h/mL and the “AUC (0-∞)” value ([3]; Brain) was 88742.9 ng·h/mL. The Cmax ([3]; Brain) was 3726.6 ng/mL, the “MRT (expo)” value ([3]; Brain) was 42.5 h and the “AUC (0-t)” value ([3]; Plasma) was 16870.2 ng·h/mL. The “AUC (0-∞)” value ([3]; Plasma) was 16951.2 ng·h/mL, the Cmax ([3]; Plasma) was 1550.2 ng/mL and the “MRT (expo)” value ([3]; Plasma) was 17.6 h. The “passage of the blood-brain barrier (in words)” value ([3]; mouse model) was “not impeded by the blood-brain barrier”, the “biological effect on central nervous system (functional observational battery, grip strength, hind limb splay, body temperature)” value (central nervous system; single intravenous 6.25, 12.5 or 25 mg/kg, male Sprague Dawley rats, 15 minutes, 1, 4, 8 and 24 hours post-dose) was “no biological effects” and the “deaths or treatment-related clinical signs” value (central nervous system; single intravenous 6.25, 12.5 or 25 mg/kg, male rats) was “no deaths or treatment-related clinical signs”. For the same compound, the “no adverse effect level” value (central nervous system; single intravenous dose, male Sprague Dawley rats) was 25 mg/kg, the “difference in F with different formulations (in words)” value [4] was “no significant difference in F with different formulations” and the bioavailability ([4]; in vivo, using a cremophor-free formulation as reference, read-out: effective F (real bioavailability)) was 60 to 70%. It also gave an AUC0-24 ([5]; 56 mg/m^2, plasma) of 2530 ± 847 ng·h/mL, a Cl ([5]; 56 mg/m^2, plasma) of 18.9 ± 9.53 L/hr/m^2 and a Vss ([5]; 56 mg/m^2, plasma) of 232 ± 93.6 L/m^2. The t1/2 ([5]; 56 mg/m^2, plasma) was 8.96 ± 7.09 h, the AUC0-24 ([5]; 84 mg/m^2, plasma) was 3710 ng·h/mL and the Cl ([5]; 84 mg/m^2, plasma) was 15.4 L/hr/m^2. For the same compound, the Vss ([5]; 84 mg/m^2, plasma) was 300 L/m^2, the AUC0-24 ([5]; 126 mg/m^2, plasma) was 6110 ± 3030 ng·h/mL and the Cl ([5]; 126 mg/m^2, plasma) was 22.1 ± 11.2 L/hr/m^2. The Vss ([5]; 126 mg/m^2, plasma) was 166 ± 105 L/m^2, the t1/2 ([5]; 126 mg/m^2, plasma) was 6.27 ± 3.64 h and the AUC0-24 ([5]; 185 mg/m^2, plasma) was 7260 ± 2620 ng·h/mL. It also gave a Cl ([5]; 185 mg/m^2, plasma) of 24.7 ± 12.2 L/hr/m^2, a Vss ([5]; 185 mg/m^2, plasma) of 215 ± 116 L/m^2 and a t1/2 ([5]; 185 mg/m^2, plasma) of 3.43 ± 7.31 h. For the same compound, the dose limiting toxicity ([5]; Study S-(1)-02, i.v. every 21 days, 185 mg/m^2 (2 patients)) was “Grade 3 sensory neuropathy; also recorded: Gr 3 peripheral sensory neuropathy”, the “dose that can be safely administered” value ([5]; every 21 days in heavily pre-treated patients) was 160 mg/m^2 and the “patients who experienced Gr 4 neutropenia” value ([5]; every 21 days, 14 patients) was 1 pt. For the same compound, the “drug related adverse events” value ([5]; every 21 days, 56-185 mg/m^2, 14 patients) was “mucositis, vomiting, diarrhea, neutropenia, thrombocytopenia, myalgias and peripheral neuropathy”, the dose limiting toxicity ([5]; every 21 days, dose of 160 mg/m^2) was “no DLT was observed” and the “dose dependence of AUC (in words)” value ([5]; every-21-days study) was “generally dose linear”. The clearance ([5]; every-21-days study summary, dose of 126 mg/m^2) was 24.7±12.2 L/hr/m^2, the tumor response ([5]; every-21-days study, patients with advanced cancer) was 1 pt with pancreatic cancer had a confirmed response and the half-life ([5]; 126 mg/m2, every-21-days study summary, dose of 126 mg/m^2, read-out: t1/2 (converted)) was 10.6 h. The half-life ([5]; Study S-(1)-02, after first dose, read-out: Plasma t1/2, range over dose groups) was 3.43 to 8.96 h.
